Measured values reported in patent US20230278972A1, “SUBSTITUTED HALOALKYL SULFONANILIDE HERBICIDES” (FMC Corporation, priority 2020, published 2023).

Tests used:
Assay type in all cases: in vivo
[1] = tested on: galium (catchweed bedstraw, Galium aparine); assay: Test A postemergence, galium; details: Postemergence; for Galium plant response rating: 500 g ai/ha, visual injury vs untreated controls after approx. 10 days
In short: (§1)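 Pots: loam soil/sand blend. Pre: directed soil spray at planting. Post: plants 2–10 cm, 1–2 leaf stage. Formulation: non-phytotoxic solvent + surfactant.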

[2] = tested on: kochia (Bassia scoparia); assay: Test A preemergence, kochia; details: Preemergence; for Plant response rating, Kochia: 0 to 100 scale (0 no effect, 100 complete control); for Kochia plant response rating: 125 g ai/ha, visual injury on 0 to 100 scale (0 no effect, 100 complete control), approximately 10 days
In short: (§2)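 Formulated with a surfactant in a non-phytotoxic solvent, compounds are applied to loam–sand pots, either to bare soil immediately after seeding (preemergence) or to seedlings of 2 to 10 cm bearing one to two leaves (postemergence).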

[3] = tested on: Foxtail, Giant (giant foxtail, Setaria faberi); assay: Test A preemergence, Foxtail, Giant; details: Preemergence; for Plant response rating, Foxtail, Giant: 0 to 100 scale (0 no effect, 100 complete control); for Foxtail, Giant plant response rating: 125 g ai/ha, visual injury on 0 to 100 scale (0 no effect, 100 complete control), approximately 10 days
In short: as §2

[4] = tested on: ragweed (common ragweed, Ambrosia artemisiifolia); assay: Test A preemergence, ragweed; details: Preemergence; for Plant response rating, Ragweed: 0 to 100 scale (0 no effect, 100 complete control); for Ragweed plant response rating: 125 g ai/ha, visual injury on 0 to 100 scale (0 no effect, 100 complete control), approximately 10 days
In short: as §2

[5] = tested on: ragweed (common ragweed, Ambrosia artemisiifolia); assay: Test A postemergence, ragweed; details: Postemergence; for Ragweed plant response rating: 500 g ai/ha, visual injury vs untreated controls after approx. 10 days
In short: as §2

[6] = tested on: wheat (Triticum aestivum); assay: Test A postemergence, wheat; details: Postemergence; for Wheat plant response rating: 500 g ai/ha, visual injury vs untreated controls after approx. 10 days
In short: as §1

[7] = tested on: barnyardgrass (Echinochloa crus-galli); assay: Test A postemergence, barnyardgrass; details: Postemergence, 0 to 100 scale (0 no effect, 100 complete control); for Barnyardgrass plant response rating: 500 g ai/ha, visual injury vs untreated controls after approx. 10 days
In short: as §1

[8] = tested on: corn (Zea mays); assay: Test A postemergence, corn; details: Postemergence; for Corn plant response rating: 500 g ai/ha, visual injury vs untreated controls after approx. 10 days
In short: as §2

[9] = tested on: Ryegrass, Italian (Italian ryegrass, Lolium multiflorum); assay: Test A postemergence, Ryegrass, Italian; details: Postemergence; for Ryegrass, Italian plant response rating: 500 g ai/ha, visual injury vs untreated controls after approx. 10 days
In short: as §2

[10] = tested on: Ryegrass, Italian (Italian ryegrass, Lolium multiflorum); assay: Test A preemergence, Ryegrass, Italian; details: Preemergence; for Plant response rating, Ryegrass, Italian: 0 to 100 scale (0 no effect, 100 complete control); for Ryegrass, Italian plant response rating: 125 g ai/ha, visual injury on 0 to 100 scale (0 no effect, 100 complete control), approximately 10 days
In short: as §2

[11] = tested on: barnyardgrass (Echinochloa crus-galli); assay: Test A preemergence, barnyardgrass; details: Preemergence; for Plant response rating, Barnyardgrass: 0 to 100 scale (0 no effect, 100 complete control); for Barnyardgrass plant response rating: 125 g ai/ha, visual injury on 0 to 100 scale (0 no effect, 100 complete control), approximately 10 days
In short: as §2

[12] = tested on: pigweed (Amaranthus retroflexus); assay: Test A preemergence, pigweed; details: for Plant response rating, Pigweed: 0 to 100 scale (0 no effect, 100 complete control); for Pigweed plant response rating: 125 g ai/ha, visual injury on 0 to 100 scale (0 no effect, 100 complete control), approximately 10 days
In short: as §1

[13] = tested on: blackgrass (Alopecurus myosuroides); assay: Test A postemergence, blackgrass; details: Postemergence, 0 to 100 scale (0 no effect, 100 complete control); for Blackgrass plant response rating: 500 g ai/ha, visual injury vs untreated controls after approx. 10 days
In short: as §2

[14] = tested on: Foxtail, Giant (giant foxtail, Setaria faberi); assay: Test A postemergence, Foxtail, Giant; details: Postemergence; for Foxtail, Giant plant response rating: 500 g ai/ha, visual injury vs untreated controls after approx. 10 days
In short: as §2

[15] = tested on: kochia (Bassia scoparia); assay: Test A postemergence, kochia; details: Postemergence; for Kochia plant response rating: 500 g ai/ha, visual injury vs untreated controls after approx. 10 days
In short: as §2

[16] = tested on: pigweed (Amaranthus retroflexus); assay: Test A postemergence, pigweed; details: Postemergence; for Pigweed plant response rating: 500 g ai/ha, visual injury vs untreated controls after approx. 10 days
In short: as §2

[17] = 31 g ai/ha, visual injury on 0 to 100 scale (0 no effect, 100 complete control), approx. 10 days
[18] = 125 g ai/ha, visual injury approx. 10 days, 0 to 100 scale (0 no effect, 100 complete control)
[19] = 31 g ai/ha, visual injury, approx. 10 days
[20] = 125 g ai/ha, visual injury approx. 10 days
[21] = 0 to 100 scale (0 no effect, 100 complete control)

COC1CCN(C(=O)c2cc(NS(=O)(=O)C(F)(F)F)c(C)cc2C)C1 (stereo not drawn) [Compound 113]
Plant response rating, Galium [1, 17]: 70
Plant response rating, Galium [1, 18]: 80
Plant response rating, Kochia [2, 19]: 10
Kochia plant response rating [2]: 50
Plant response rating, Foxtail, Giant [3, 19]: 10
Foxtail, Giant plant response rating [3]: 60
Plant response rating, Ragweed [4, 19]: 0
Ragweed plant response rating [4]: 60
Plant response rating, Ragweed [5, 17]: 80
Plant response rating, Ragweed [5, 18]: 90
Plant response rating, Wheat [6, 17]: 0
Plant response rating, Wheat [6, 18]: 20
Plant response rating, Barnyardgrass ([7]; 31 g ai/ha): 20
Plant response rating, Barnyardgrass [7, 20]: 80
Plant response rating, Corn [8, 17]: 0
Plant response rating, Corn [8, 18]: 0
Plant response rating, Ryegrass, Italian [9, 17]: 20
Plant response rating, Ryegrass, Italian [9, 18]: 50
Plant response rating, Ryegrass, Italian [10, 19]: 0
Ryegrass, Italian plant response rating [10]: 80
Plant response rating, Barnyardgrass [11, 19]: 0
Barnyardgrass plant response rating [11]: 20
Plant response rating, Pigweed [12, 19]: 30
Pigweed plant response rating [12]: 90
Plant response rating, Blackgrass ([13]; 31 g ai/ha): 0
Plant response rating, Blackgrass [13, 20]: 0
Plant response rating, Foxtail, Giant [14, 17]: 0
Plant response rating, Foxtail, Giant [14, 18]: 30
Plant response rating, Kochia [15, 17]: 10
Plant response rating, Kochia [15, 18]: 50
Plant response rating, Pigweed [16, 17]: 80
Plant response rating, Pigweed [16, 18]: 90

COC(=O)N(c1cc(C(=O)N2CCCC(OC)C2)c(C)cc1C)S(=O)(=O)C(F)(F)F (stereo not drawn) [Compound 115]
Plant response rating, Galium [1, 17]: 80
Plant response rating, Galium [1, 18]: 90
Plant response rating, Kochia [2, 19]: 0
Kochia plant response rating [2]: 40
Plant response rating, Foxtail, Giant [3, 19]: 100
Foxtail, Giant plant response rating [3]: 100
Plant response rating, Ragweed [4, 19]: 0
Ragweed plant response rating [4]: 20
Plant response rating, Ragweed [5, 17]: 30
Plant response rating, Ragweed [5, 18]: 50
Plant response rating, Wheat [6, 17]: 40
Plant response rating, Wheat [6, 18]: 60
Plant response rating, Barnyardgrass ([7]; 31 g ai/ha): 10
Plant response rating, Barnyardgrass [7, 20]: 50
Plant response rating, Corn [8, 17]: 0
Plant response rating, Corn [8, 18]: 0
Plant response rating, Ryegrass, Italian [9, 17]: 0
Plant response rating, Ryegrass, Italian [9, 18]: 40
Plant response rating, Ryegrass, Italian [10, 19]: 70
Ryegrass, Italian plant response rating [10]: 90
Plant response rating, Barnyardgrass [11, 19]: 50
Barnyardgrass plant response rating [11]: 100
Plant response rating, Pigweed [12, 19]: 100
Pigweed plant response rating [12]: 90
Plant response rating, Blackgrass ([13]; 31 g ai/ha): 0
Plant response rating, Blackgrass [13, 20]: 0
Plant response rating, Foxtail, Giant [14, 17]: 0
Plant response rating, Foxtail, Giant [14, 18]: 30
Plant response rating, Kochia [15, 17]: 20
Plant response rating, Kochia [15, 18]: 30
Plant response rating, Pigweed [16, 17]: 30
Plant response rating, Pigweed [16, 18]: 60

Cc1cc(C)c(N(S(=O)(=O)C(F)(F)F)S(=O)(=O)C(F)(F)F)cc1C(=O)N1CCCC(F)C1 (stereo not drawn) [Compound 118]
Plant response rating, Galium [1, 17]: 40
Plant response rating, Galium [1, 18]: 90
Plant response rating, Kochia [2, 19]: 0
Kochia plant response rating [2]: 0
Plant response rating, Foxtail, Giant [3, 19]: 80
Foxtail, Giant plant response rating [3]: 100
Plant response rating, Ragweed [4, 19]: 50
Ragweed plant response rating [4]: 100
Plant response rating, Ragweed [5, 17]: 20
Plant response rating, Ragweed [5, 18]: 80
Plant response rating, Wheat [6, 17]: 0
Plant response rating, Wheat [6, 18]: 40
Plant response rating, Barnyardgrass ([7]; 31 g ai/ha): 10
Plant response rating, Barnyardgrass [7, 20]: 90
Plant response rating, Corn [8, 17]: 0
Plant response rating, Corn [8, 18]: 0
Plant response rating, Ryegrass, Italian [9, 17]: 0
Plant response rating, Ryegrass, Italian [10, 19]: 40
Ryegrass, Italian plant response rating [10]: 80
Plant response rating, Barnyardgrass [11, 19]: 0
Barnyardgrass plant response rating [11]: 90
Plant response rating, Pigweed [12, 19]: 100
Pigweed plant response rating [12]: 100
Plant response rating, Blackgrass ([13]; 31 g ai/ha): 20
Plant response rating, Blackgrass [13, 20]: 10
Plant response rating, Foxtail, Giant [14, 17]: 0
Plant response rating, Foxtail, Giant [14, 18]: 30
Plant response rating, Kochia [15, 17]: 10
Plant response rating, Kochia [15, 18]: 40
Plant response rating, Pigweed [16, 17]: 30
Plant response rating, Pigweed [16, 18]: 90

COC1CCCN(C(=O)c2cc(N(S(=O)(=O)C(F)(F)F)S(=O)(=O)C(F)(F)F)c(C)cc2C)C1 (stereo not drawn) [Compound 119]
Plant response rating, Galium [1, 18]: 80
Galium plant response rating [1, 21]: 90
Kochia plant response rating [2]: 50
Plant response rating, Kochia ([2]; 500 g ai/ha): 100
Foxtail, Giant plant response rating [3]: 100
Plant response rating, Foxtail, Giant ([3]; 500 g ai/ha): 100
Ragweed plant response rating [4]: 80
Plant response rating, Ragweed ([4]; 500 g ai/ha): 100
Plant response rating, Ragweed [5, 18]: 70
Ragweed plant response rating [5, 21]: 90
Plant response rating, Wheat [6, 18]: 10
Wheat plant response rating [6, 21]: 70
Plant response rating, Barnyardgrass [7, 20]: 40
Barnyardgrass plant response rating [7]: 90
Plant response rating, Corn [8, 18]: 10
Corn plant response rating [8, 21]: 30
Plant response rating, Ryegrass, Italian [9, 18]: 20
Ryegrass, Italian plant response rating [9, 21]: 90
Ryegrass, Italian plant response rating [10]: 80
Plant response rating, Ryegrass, Italian ([10]; 500 g ai/ha): 100
Barnyardgrass plant response rating [11]: 100
Plant response rating, Barnyardgrass ([11]; 500 g ai/ha): 100
Pigweed plant response rating [12]: 100
Plant response rating, Pigweed ([12]; 500 g ai/ha): 100
Plant response rating, Blackgrass [13, 20]: 0
Blackgrass plant response rating [13]: 40
Plant response rating, Foxtail, Giant [14, 18]: 30
Foxtail, Giant plant response rating [14, 21]: 80
Plant response rating, Kochia [15, 18]: 20
Kochia plant response rating [15, 21]: 60
Plant response rating, Pigweed [16, 18]: 40
Pigweed plant response rating [16, 21]: 70

Cc1cc(C)c(C2=NOC3(C2)CC(C)(C)CC(C)(C)C3)cc1NS(=O)(=O)C(F)(F)F [Compound 122]
Plant response rating, Galium [1, 18]: 60
Galium plant response rating [1, 21]: 90
Kochia plant response rating [2]: 70
Plant response rating, Kochia ([2]; 500 g ai/ha): 30
Foxtail, Giant plant response rating [3]: 50
Plant response rating, Foxtail, Giant ([3]; 500 g ai/ha): 100
Ragweed plant response rating [4]: 0
Plant response rating, Ragweed ([4]; 500 g ai/ha): 0
Plant response rating, Ragweed [5, 18]: 0
Ragweed plant response rating [5, 21]: 0
Plant response rating, Wheat [6, 18]: 0
Wheat plant response rating [6, 21]: 0
Plant response rating, Barnyardgrass [7, 20]: 10
Barnyardgrass plant response rating [7]: 70
Plant response rating, Corn [8, 18]: 0
Corn plant response rating [8, 21]: 0
Plant response rating, Ryegrass, Italian [9, 18]: 0
Ryegrass, Italian plant response rating [9, 21]: 0
Ryegrass, Italian plant response rating [10]: 30
Plant response rating, Ryegrass, Italian ([10]; 500 g ai/ha): 80
Barnyardgrass plant response rating [11]: 0
Plant response rating, Barnyardgrass ([11]; 500 g ai/ha): 70
Pigweed plant response rating [12]: 0
Plant response rating, Pigweed ([12]; 500 g ai/ha): 30
Plant response rating, Blackgrass [13, 20]: 0
Blackgrass plant response rating [13]: 10
Plant response rating, Foxtail, Giant [14, 18]: 0
Foxtail, Giant plant response rating [14, 21]: 20
Plant response rating, Kochia [15, 18]: 0
Kochia plant response rating [15, 21]: 10
Plant response rating, Pigweed [16, 18]: 20
Pigweed plant response rating [16, 21]: 50
